From ChEMBL document CHEMBL1641465, “2,4-Diaminopyrimidine inhibitors of c-Met kinase bearing benzoxazepine anilines” (Bioorg Med Chem Lett, 2011)

How the values were obtained:
[1] = AUC (0 to infinity) in rat at 5 mg/kg, po; format: ADME, organism-based; parameters: time infinity, dose 5 mg/kg, route oral; conditions: plasma
[2] = Half life in rat at 1 mg/kg, iv; format: ADME, organism-based; parameters: dose 1 mg/kg, route intravenous; conditions: in vivo
[3] = Clearance in rat at 1 mg/kg, iv; format: ADME, organism-based; parameters: dose 1 mg/kg, route intravenous; conditions: in vivo
[4] = AUC (0 to infinity) in rat at 1 mg/kg, iv; format: ADME, organism-based; parameters: time infinity, dose 1 mg/kg, route intravenous; conditions: plasma
[5] = Oral bioavailability in rat at 5 mg/kg; format: ADME, organism-based; conditions: in vivo
[6] = Drug level in tumor of human GTL16 cells xenografted in mouse assessed as tumor regression at 100 mg/kg, po qd for 5 days 2 to 10 hrs after last dose; format: ADME, organism-based, Neoplasm; parameters: dose 100 mg/kg, route oral; conditions: in vivo
[7] = Drug level in tumor of human GTL16 cells xenografted in mouse assessed as tumor regression at 100 mg/kg, po qd for 5 days 10 hrs after last dose; format: ADME, organism-based, Neoplasm; parameters: dose 100 mg/kg, route oral; conditions: read-out: Drug uptake

Structure (SMILES)	AUC(0-inf) [1] [ng·h/mL]	half-life [2] [min]	clearance [3] [mL/min/kg]	AUC(0-inf) [4] [ng·h/mL]	bioavailability [5] [%]	Drug uptake [6] [ng/g]	concentration at 10 h [7] [ng/g]
CCOC(=O)N1CCCOc2cc(Nc3ncc(Cl)c(Nc4c(F)cccc4C(=O)NC)n3)ccc21	913	72	15.3	1220	15	125	
CCN1CCCOc2cc(Nc3ncc(Cl)c(Nc4c(F)cccc4C(=O)NC)n3)ccc21	< 100						
CNC(=O)c1cccc(F)c1Nc1nc(Nc2ccc3c(c2)OCCCN3CCN2CCCC2)ncc1Cl	< 100						
CNC(=O)c1cccc(F)c1Nc1nc(Nc2ccc3c(c2)OCCCN3)ncc1Cl		18	34				> 200
